From US20250101019A1 (Insilico Medicine IP Limited, priority 2022, published 2025)
pIC50: −log10 of the molar value.

Tests used:
[1] = target: T1, ENPP1 (Homo sapiens (Human), UniProt P22413); test: cGAMP-Glo enzymatic assay (2′3′-cGAMP substrate, AMP-Glo readout); type: biochemical; settings: substrate 2′3′-cGAMP; 25° C. for 60 min; 50 mM Tris pH 8.8
Procedure: (§1) Example A: Enzymatic Assay
(§2) • 1. Diluted compounds in DMSO by hand for 11 points, 3 folds dilution. Then transferred 0.02 μL compounds to 384 assay plate by ECHO. • 2. Added 2 μL specified concentration of ENPP1 to 384 assay plate. Centrifuged 1000 RPM for 1 min. • 3. Added 2 μL specified concentration of ATP to the assay plate. Centrifuged 1000 RPM for 1 min. • 4. Incubated at 25° C. for 60 min. • 5. Added 4 μL AMP-Glo Reagent to the assay plates. • 6. Centrifuged 1000 RPM for 1 min, incubate at 25° C. for 1 hours. • 7. Added 8 μL Kinase Detection Reagent to the assay plates. • 8. Centrifuged 1000 RPM for 1 min, incubated at 25° C. for 1 hours. The final assay reaction mixture contained a buffer of 50 mM Tris pH 8.8, 250 mM NaCl and 0.1% BSA • 9. Read on Envision for US LUM as RLU. • 10. Analyzed the raw data using the equation (V. Data analysis). cGAMP-Glo Assay: • 1. Diluted compounds in DMSO by hand for 11 points, 3 folds dilution. Then transferred 0.02 μL compounds to 384 assay plate by ECHO. • 2. Added 2 μL specified concentration of ENPP1 to 384 assay plate, centrifuged 1000 RPM for 1 min. • 3. Added 2 μL specified concentration of 2′3′-cGAMP to the assay plate, centrifuged 1000 RPM for 1 min. • 4. Incubated at 25° C. for 60 min. • 5. Added 4 μL AMP-Glo Reagent to the assay plates. • 6. Centrifuged 1000 RPM for 1 min, incubated at 25° C. for 1 hours. • 7. Added 8 μL Kinase Detection Reagent to the assay plates. • 8. Centrifuged 1000 RPM for 1 min, incubate at 25° C. for 1 hours. The final assay reaction mixture contained a buffer of 50 mM Tris pH 8.8, 250 mM NaCl and 0.1% BSA • 9. Read on Envision for US LUM as RLU. • 10. Analyzed the raw data using the equation (V. Data analysis).

[2] = target: T1, ENPP1; test: ATP-Glo enzymatic assay (ATP substrate, AMP-Glo readout); type: biochemical; settings: 25° C. for 60 min, 50 mM Tris pH 8.8
Procedure: as §1, §2

T1 sequence (P22413 whole entry, species assumed): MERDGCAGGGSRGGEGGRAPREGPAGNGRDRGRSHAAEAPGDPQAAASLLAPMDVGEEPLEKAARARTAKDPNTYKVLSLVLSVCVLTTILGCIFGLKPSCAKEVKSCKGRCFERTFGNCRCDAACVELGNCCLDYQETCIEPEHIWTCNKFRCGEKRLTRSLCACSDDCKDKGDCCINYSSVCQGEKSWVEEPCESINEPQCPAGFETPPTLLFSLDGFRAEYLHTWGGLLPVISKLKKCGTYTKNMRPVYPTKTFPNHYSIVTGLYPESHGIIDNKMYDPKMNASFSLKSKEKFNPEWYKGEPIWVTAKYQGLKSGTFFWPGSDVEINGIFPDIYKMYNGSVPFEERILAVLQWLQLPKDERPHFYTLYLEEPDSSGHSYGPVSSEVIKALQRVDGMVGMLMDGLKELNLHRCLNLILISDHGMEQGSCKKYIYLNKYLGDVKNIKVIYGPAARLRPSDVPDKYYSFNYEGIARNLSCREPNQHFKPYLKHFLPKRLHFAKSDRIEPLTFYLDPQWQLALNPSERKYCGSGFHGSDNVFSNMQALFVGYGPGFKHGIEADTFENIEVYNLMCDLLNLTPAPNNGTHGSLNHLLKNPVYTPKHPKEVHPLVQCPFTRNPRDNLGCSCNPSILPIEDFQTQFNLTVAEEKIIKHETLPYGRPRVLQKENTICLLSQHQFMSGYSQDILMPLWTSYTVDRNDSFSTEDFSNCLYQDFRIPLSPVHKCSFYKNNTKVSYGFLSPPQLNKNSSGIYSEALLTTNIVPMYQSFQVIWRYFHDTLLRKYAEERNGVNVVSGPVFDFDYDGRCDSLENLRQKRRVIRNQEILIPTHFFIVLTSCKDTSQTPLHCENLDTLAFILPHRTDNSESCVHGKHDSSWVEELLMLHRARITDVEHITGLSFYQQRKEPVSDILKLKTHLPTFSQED

Row | Structure (SMILES) | pIC50 [1] | pIC50 [2]
1 | Cc1ncc2c(c1-c1ccccc1)n(Cc1ccc(S(N)(=O)=O)cc1)c(=O)n2C [Example 20, 4-((3,6-dimethyl-2-oxo-7-phenyl-2,3-dihydro-1H-imidazo[4,5-c]pyridin-1-yl)methyl)benzenesulfonamide] | > 9.00 | > 9.00
2 | Cc1ncc2nc(CN(C)C)n(Cc3c(F)cc(S(N)(=O)=O)cc3F)c2c1-c1ccccc1 [Example 49] | > 9.00 | > 9.00
3 | COc1ncc2nc(C(F)(F)F)n(Cc3ncc(S(N)(=O)=O)cc3F)c2c1-c1ccccc1 [Example 78, 5-fluoro-6-((6-methoxy-7-phenyl-2-(trifluoromethyl)-1H-imidazo[4,5-c]pyridin-1-yl)methyl)pyridine-3-sulfonamide] | > 9.00 | > 9.00
4 | Cc1ncc2nc(CC3CC3)n(Cc3c(F)cc(S(N)(=O)=O)cc3F)c2c1-c1ccccc1 [Example 51, 4-((2-(cyclopropylmethyl)-6-methyl-7-phenyl-1H-imidazo[4,5-c]pyridin-1-yl)methyl)-3,5-difluorobenzenesulfonamide] | > 9.00 | > 9.00
5 | COc1ncc2ncn(Cc3ccc(S(N)(=O)=O)cc3)c2c1-c1ccccc1 [Example 23, 4-((6-methoxy-7-phenyl-1H-imidazo[4,5-c]pyridin-1-yl)methyl)benzenesulfonamide] | > 9.00 | > 9.00
6 | Cc1ncc2c(c1-c1ccccc1)n(Cc1ncc(S(N)(=O)=O)cc1F)c(=O)n2C [Example 79, 6-((3,6-dimethyl-2-oxo-7-phenyl-2,3-dihydro-1H-imidazo[4,5-c]pyridin-1-yl)methyl)-5-fluoropyridine-3-sulfonamide] | > 9.00 | > 9.00
7 | Cc1ncc2nc(C(F)(F)F)n(Cc3ccc(S(N)(=O)=O)cn3)c2c1-c1ccccc1 [Example 67, 6-((6-methyl-7-phenyl-2-(trifluoromethyl)-1H-imidazo[4,5-c]pyridin-1-yl)methyl)pyridine-3-sulfonamide] | > 9.00 | > 9.00
8 | Cc1nc2cnc(OC(F)F)c(-c3ccccc3)c2n1Cc1ccc(S(N)(=O)=O)cc1 [Example 33, 4-((6-(difluoromethoxy)-2-methyl-7-phenyl-1H-imidazo[4,5-c]pyridin-1-yl)methyl)benzenesulfonamide] | > 9.00 | > 9.00
9 | [2H]C([2H])([2H])Oc1ncc2nc(C)n(Cc3ncc(S(N)(=O)=O)cc3F)c2c1-c1ccccc1 [Example 85, 5-fluoro-6-((6-(methoxy-d3)-2-methyl-7-phenyl-1H-imidazo[4,5-c]pyridin-1-yl)methyl)pyridine-3-sulfonamide] | > 9.00 | > 9.00
10 | COc1ncc2c(C)cn(Cc3ccc(S(N)(=O)=O)cc3)c2c1-c1ccccc1 [Example 10, 4-((6-methoxy-3-methyl-7-phenyl-1H-pyrrolo[3,2-c]pyridin-1-yl)methyl)benzene sulfonamide] | > 9.00 | > 9.00
11 | Cc1nc2cncc(-c3ccccc3)c2n1Cc1ccc(S(N)(=O)=O)cc1 [Example 40, 4-((2-methyl-7-phenyl-1H-imidazo[4,5-c]pyridin-1-yl)methyl)benzene sulfonamide] | > 9.00 | > 9.00
12 | [2H]C([2H])([2H])Oc1ncc2nc(C(F)F)n(Cc3ncc(S(N)(=O)=O)cc3F)c2c1-c1ccccc1 [Example 86, 6-((2-(difluoromethyl)-6-(methoxy-d3)-7-phenyl-1H-imidazo[4,5-c]pyridin-1-yl)methyl)-5-fluoropyridine-3-sulfonamide] | > 9.00 | > 9.00
13 | COc1ncc2cnn(Cc3ccc(S(N)(=O)=O)cc3)c2c1-c1ccccc1 [Example 21, 4-((6-methoxy-7-phenyl-1H-pyrazolo[4,3-c]pyridin-1-yl)methyl)benzenesulfonamide] | 8.00 to 9.00 | 7.00 to 8.00
14 | Cc1ncc2nc(C)n(Cc3ccc(S(N)(=O)=O)cn3)c2c1-c1ccccc1 [Example 65, 6-((2,6-dimethyl-7-phenyl-1H-imidazo[4,5-c]pyridin-1-yl)methyl)pyridine-3-sulfonamide] | > 9.00 | > 9.00
15 | Cc1ncc2ncn(Cc3c(F)cc(S(N)(=O)=O)cc3F)c2c1-c1ccccc1 [Example 27, 3,5-difluoro-4-((6-methyl-7-phenyl-1H-imidazo[4,5-c]pyridin-1-yl)methyl)benzene sulfonamide] | > 9.00 | > 9.00
16 | Cc1ncc2nc(C)n(Cc3ccc(S(N)(=O)=O)nc3)c2c1-c1ccccc1 [Example 66, 5-((2,6-dimethyl-7-phenyl-1H-imidazo[4,5-c]pyridin-1-yl)methyl)pyridine-2-sulfonamide] | > 9.00 | > 9.00
17 | Cc1ncc2nc(CN3CCCC3)n(Cc3c(F)cc(S(N)(=O)=O)cc3F)c2c1-c1ccccc1 [Example 60, 3,5-difluoro-4-((6-methyl-7-phenyl-2-(pyrrolidin-1-ylmethyl)-1H-imidazo[4,5-c]pyridin-1-yl)methyl)benzenesulfonamide] | > 9.00 | > 9.00
18 | Cc1ncc2nc(C3CC3)n(Cc3ncc(S(N)(=O)=O)cc3F)c2c1-c1ccccc1 [Example 70, 6-((2-cyclopropyl-6-methyl-7-phenyl-1H-imidazo[4,5-c]pyridin-1-yl)methyl)-5-fluoropyridine-3-sulfonamide] | > 9.00 | > 9.00
19 | Cc1ncc(-c2ccccc2)c2c1nc(C)n2Cc1ccc(S(N)(=O)=O)cc1 [Example 32, 4-((2,4-dimethyl-7-phenyl-1H-imidazo[4,5-c]pyridin-1-yl)methyl)benzene sulfonamide] | > 9.00 | > 9.00
20 | COc1ncc2c(C)cn(Cc3c(F)cc(S(N)(=O)=O)cc3F)c2c1-c1ccn(C)n1 [Example 4, 3,5-difluoro-4-((6-methoxy-3-methyl-7-(1-methyl-1H-pyrazol-3-yl)-1H-pyrrolo[3,2-c]pyridin-1-yl)methyl)benzene sulfonamide] | > 9.00 | 8.00 to 9.00
21 | COc1ncc2c(C)cn(Cc3ccc(NS(N)(=O)=O)cc3)c2c1-c1ccn(C)n1 [Example 1, N-(4-((6-methoxy-3-methyl-7-(1-methyl-1H-pyrazol-3-yl)-1H-pyrrolo[3,2-c]pyridin-1-yl)methyl)phenyl) sulfamide] | 7.00 to 8.00 | 6.00 to 7.00
22 | COc1ncc2ccn(Cc3ccc(S(N)(=O)=O)cc3)c2c1-c1ccccc1 [Example 9, 4-((6-methoxy-7-phenyl-1H-pyrrolo[3,2-c]pyridin-1-yl)methyl)benzene sulfonamide] | > 9.00 | > 9.00
23 | Cc1ncc2nc(C)n(Cc3c(F)cc(S(N)(=O)=O)cc3F)c2c1C1=CCCC1 [Example 58, 4-((7-(cyclopent-1-en-1-yl)-2,6-dimethyl-1H-imidazo[4,5-c]pyridin-1-yl)methyl)-3,5-difluorobenzenesulfonamide] | > 9.00 | > 9.00
24 | Cc1ncc2ccn(Cc3ccc(S(N)(=O)=O)cc3)c2c1-c1ccccc1 [Example 15, 4-((6-methyl-7-phenyl-1H-pyrrolo[3,2-c]pyridin-1-yl)methyl)benzene sulfonamide] | > 9.00 | > 9.00
25 | Cc1ncc2c(C)cn(Cc3c(F)cc(S(N)(=O)=O)cc3F)c2c1-c1ccn(C)n1 [Example 17, 4-((3,6-dimethyl-7-(1-methyl-1H-pyrazol-3-yl)-1H-pyrrolo[3,2-c]pyridin-1-yl)methyl)-3,5-difluorobenzenesulfonamide] | 8.00 to 9.00 | 8.00 to 9.00
